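Where inhibition never reached the appropriate level, the endpoint shown equals the highest concentration tested. Otherwise, values were interpolated linearly from a five-concentration, 48-hour dose response in 96-well plates. At the TGI there is no net growth.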
What was measured:
Experiment in all cases: NCI tumour cell line growth inhibition, 48 h
UACC-62 melanoma = tested on: UACC-62 melanoma
NCI-H522 lung = tested on: NCI-H522 lung
SK-MEL-28 melanoma = tested on: SK-MEL-28 melanoma
SF-295 CNS = tested on: SF-295 CNS
MDA-MB-231 breast = tested on: MDA-MB-231 breast
NCI/ADR-RES ovarian = tested on: NCI/ADR-RES ovarian
SK-MEL-2 melanoma = tested on: SK-MEL-2 melanoma
MDA-N = tested on: MDA-N
OVCAR-8 ovarian = tested on: OVCAR-8 ovarian
LOX IMVI melanoma = tested on: LOX IMVI melanoma
CAKI-1 renal = tested on: CAKI-1 renal
786-0 renal = tested on: 786-0 renal
NCI-H23 lung = tested on: NCI-H23 lung
TK-10 renal = tested on: TK-10 renal
SF-268 CNS = tested on: SF-268 CNS
HCT-15 colon = tested on: HCT-15 colon
SNB-19 CNS = tested on: SNB-19 CNS
SK-OV-3 ovarian = tested on: SK-OV-3 ovarian
HCT-116 colon = tested on: HCT-116 colon
KM12 colon = tested on: KM12 colon
OVCAR-5 ovarian = tested on: OVCAR-5 ovarian
M14 melanoma = tested on: M14 melanoma
COLO 205 colon = tested on: COLO 205 colon
A498 renal = tested on: A498 renal
MCF7 breast = tested on: MCF7 breast
T-47D breast = tested on: T-47D breast
U251 CNS = tested on: U251 CNS
SK-MEL-5 melanoma = tested on: SK-MEL-5 melanoma
NCI-H460 lung = tested on: NCI-H460 lung
IGROV1 ovarian = tested on: IGROV1 ovarian
SN12C renal = tested on: SN12C renal
HS 578T breast = tested on: HS 578T breast
OVCAR-3 ovarian = tested on: OVCAR-3 ovarian
MALME-3M melanoma = tested on: MALME-3M melanoma
MDA-MB-435 = tested on: MDA-MB-435
PC-3 prostate = tested on: PC-3 prostate
HOP-62 NSCLC = tested on: HOP-62 NSCLC
EKVX NSCLC = tested on: EKVX NSCLC
HT29 colon = tested on: HT29 colon
SNB-75 CNS = tested on: SNB-75 CNS
HOP-92 NSCLC = tested on: HOP-92 NSCLC
UO-31 renal = tested on: UO-31 renal
SF-539 CNS = tested on: SF-539 CNS
SW-620 colon = tested on: SW-620 colon
A549 NSCLC = tested on: A549 NSCLC
UACC-257 melanoma = tested on: UACC-257 melanoma
DU-145 prostate = tested on: DU-145 prostate
NCI-H226 lung = tested on: NCI-H226 lung
ACHN renal = tested on: ACHN renal
HL-60(TB) leukemia = tested on: HL-60(TB) leukemia
MOLT-4 leukemia = tested on: MOLT-4 leukemia
OVCAR-4 ovarian = tested on: OVCAR-4 ovarian
CCRF-CEM leukemia = tested on: CCRF-CEM leukemia
K-562 leukemia = tested on: K-562 leukemia
RPMI-8226 leukemia = tested on: RPMI-8226 leukemia
RXF 393 renal = tested on: RXF 393 renal
BT-549 breast = tested on: BT-549 breast
HCC-2998 colon = tested on: HCC-2998 colon
SR leukemia = tested on: SR leukemia

Measured: TGI

Cn1c(O)c(/C=N/c2ncccn2)c(=O)[nH]c1=O
not listed: CCRF-CEM leukemia | K-562 leukemia | RPMI-8226 leukemia | RXF 393 renal | BT-549 breast | HCC-2998 colon | SR leukemia
> 100 µM: all other assays above

O=c1cnc2cc3ccccc3cc2[nH]1
not listed: UACC-62 melanoma | T-47D breast | SF-539 CNS | DU-145 prostate
> 100 µM: all other assays above
